How the values were obtained:
Format in all cases: in vivo
[1] = tested on: Deroceras reticulatum; experiment: Forced ingestion study on D. reticulatum (Example 1); conditions: for Number of slugs Affected / Number of slugs Dead / Number of slugs Healthy: of 20 slugs
Method: Forced ingestion studies were setup using the Field Slug, Deroceras reticulatum. A formulation containing the strobilurin azoxystrobin was injected directly into the gut of the slugs. Details of the formulation (Dynasty® 100FS) are: […]
Slugs were field-collected, and starved for 48 hours prior to forced ingestion studies. Individual slugs were weighed and anaesthetized using carbon dioxide for 10 to 20 minutes. Test solutions were incorporated into an agar jelly (1.0% w/v) to reduce the risk of regurgitation. For each slug, ten ul aliquots of warm agar mix were injected into the buccal cavity using a fine glass micro-syringe and gently eased into the slug crop. Individual slugs were then placed into labelled Petri dishes lined with moist, unbleached, absorbent paper. For each treatment, 20 slugs were injected. An untreated control of warm agar gel was injected for comparison purposes.
Treated slugs were maintained under controlled environmental conditions (12 hour photoperiod, 15° C., 90% relative humidity), and slug health assessments recorded over the three subsequent days. Slug health was classified into one of the following categories: • Healthy: showing no symptoms • Affected: showing some symptoms of poisoning, excessive mucus production/deformity • Dead

[2] = tested on: Deroceras reticulatum; experiment: Forced ingestion trial of Deroceras reticulatum using various strobilurin compounds (Example 2); conditions: for slug mortality (in words): 0.5 mg a.i./slug
Method: (§1) Adult D. reticulatum were field-collected from an irrigated plot of mixed herbage and maintained in plastic boxes lined with moist, unbleached, absorbent paper and under controlled environmental conditions (12 hour photoperiod, 10° C., 90% RH). Slugs were fed ad. lib. on wheat grain and a mixture of fresh foliage for a period of up to, but not exceeding, one week prior to testing. Slugs were then starved for a period of 48 h before treatment.
(§2) Individual slugs were weighed and anaesthetized using CO2 for a period of 10-20 minutes. Test solutions were incorporated into a warm agar jelly (1.0% w/v) to reduce the risk of regurgitation. Twenty μl aliquots of warm agar mix was then injected into the buccal cavity of a single slug using a fine glass micro-syringe and gently eased into the slug crop. Individual slugs were then placed into labelled Petri dishes lined with moist, unbleached, absorbent paper. Following application of treatments, slugs were maintained under controlled environmental conditions (12 hr photoperiod, 10° C., 90% RH), and slug health recorded over the subsequent three days. Slug health was classified into one of four categories: • Healthy (showing no symptoms) • Affected (showing some symptoms of poisoning, excessive mucus production/deformity) • Moribund (severely affected/paralysed, unable to move in response to gentle prodding) • Dead
For each treatment, 20 slugs were injected. […] The results are shown in Table 3, presented as a percentage of the total number of slugs tested for each treatment.

[3] = tested on: Arion distinctus; experiment: Forced ingestion trial of azoxystrobin (FS formulation) against various slug species (Example 3); conditions: 100FS formulation
Method: as §1, §2
(§3) The methods used in this trial were the same as those described in Example 2, except that the following slug species were collected and tested: Deroceras reticulatum, Anion distinctus, Anion fasciatus and Tandonia budapestensis
(§4) For each treatment, 20 slugs were injected. […] The results are shown in Table 5, presented as a percentage of the total number of slugs tested for each treatment.

[4] = tested on: Arion fasciatus; experiment: as above; conditions: 100FS formulation
Method: as §1, §2, §3, §4

[5] = tested on: Tandonia budapestensis; experiment: as above; conditions: 100FS formulation
Method: as §1, §2, §3, §4

[6] = tested on: Arion distinctus; experiment: Forced ingestion trial of azoxystrobin (SC formulation) against various slug species (Example 4); conditions: 250SC formulation
Method: as §1, §2, §3
(§5) For each treatment, at least 20 slugs were injected. […] The results are shown in Table 7, presented as a percentage of the total number of slugs tested for each treatment.

[7] = tested on: Arion fasciatus; experiment: as above; conditions: 250SC formulation
Method: as §1, §2, §3, §5

[8] = tested on: Deroceras reticulatum; experiment: as above; conditions: 250SC formulation
Method: as §1, §2, §3, §5

[9] = tested on: Tandonia budapestensis; experiment: as above; conditions: 250SC formulation
Method: as §1, §2, §3, §5

[10] = tested on: D. reticulatum; experiment: Tests to establish potential effect of surfactants on molluscicidal activity, forced ingestion (Example 6)
Method: as §1, §2
The methods used in this trial were the same as those described in Example 2. The treatments tested are listed in Table 10, and results are in Table 11, presented as a percentage of the total number of slugs tested for each treatment. For each treatment 20 slugs were tested. For ease of comparison, the concentrations of each treatment applied were equivalent to the amount of each component that would be applied in a treatment of Amistar® at a rate of 0.1 mg a.i./slug.

[11] = tested on: Deroceras reticulatum; experiment: Forced ingestion trial of azoxystrobin (FS formulation) and picoxystrobin against various slug species (Example 3)
Method: as §1
as §2, with “Dead […]” for “Dead”

[12] = 0.0001 mg azoxystrobin/slug, 24 hours
[13] = 0.0001 mg azoxystrobin/slug, 48 hours
[14] = 0.0001 mg azoxystrobin/slug, 72 hours
[15] = 0.001 mg azoxystrobin/slug, 24 hours
[16] = 0.001 mg azoxystrobin/slug, 48 hours
[17] = 0.001 mg azoxystrobin/slug, 72 hours
[18] = 0.01 mg azoxystrobin/slug, 24 hours
[19] = 0.01 mg azoxystrobin/slug, 48 hours
[20] = 0.01 mg azoxystrobin/slug, 72 hours
[21] = 0.1 mg azoxystrobin/slug, 24 hours
[22] = 0.1 mg azoxystrobin/slug, 48 hours
[23] = 0.1 mg azoxystrobin/slug, 72 hours
[24] = 1 mg azoxystrobin/slug, 24 hours
[25] = 1 mg azoxystrobin/slug, 48 hours
[26] = 1 mg azoxystrobin/slug, 72 hours
[27] = 0.1 mg a.i./slug, 72 hours after forced ingestion

Question: How did the “Number of slugs Affected” value [1, 12] turn out when `CO/C=C(/C(=O)OC)c1ccccc1Oc1cc(Oc2ccccc2C#N)ncn1` [azoxystrobin] was run?
Answer: Its value is 0.

Question: And the “Number of slugs Dead” value [1, 12]?
Answer: Its value is 0.

Question: And the “Number of slugs Healthy” value [1, 12]?
Answer: Its value is 20.

Question: What about the “Number of slugs Affected” value [1, 13] of the same compound?
Answer: The value was 0.

Question: What about the “Number of slugs Dead” value [1, 13] of the same compound?
Answer: The value was 0.

Question: What about the “Number of slugs Healthy” value [1, 13] of the same compound?
Answer: The value was 20.

Question: And the “Number of slugs Affected” value [1, 14]?
Answer: Its value is 0.

Question: And the “Number of slugs Dead” value [1, 14]?
Answer: The value was 0.

Question: And the “Number of slugs Healthy” value [1, 14]?
Answer: The value was 20.

Question: And the “Number of slugs Affected” value [1, 15]?
Answer: The value was 4.

Question: And the “Number of slugs Dead” value [1, 15]?
Answer: The value was 0.

Question: And the “Number of slugs Healthy” value [1, 15]?
Answer: Its value is 16.

Question: What about the “Number of slugs Affected” value [1, 16] of the same compound?
Answer: Its value is 2.

Question: What about the “Number of slugs Dead” value [1, 16] of the same compound?
Answer: Its value is 4.

Question: What about the “Number of slugs Healthy” value [1, 16] of the same compound?
Answer: Its value is 14.

Question: And the “Number of slugs Affected” value [1, 17]?
Answer: Its value is 2.

Question: What about the “Number of slugs Dead” value [1, 17] of the same compound?
Answer: The value was 4.

Question: And the “Number of slugs Healthy” value [1, 17]?
Answer: Its value is 14.

Question: And the “Number of slugs Affected” value [1, 18]?
Answer: Its value is 6.

Question: And the “Number of slugs Dead” value [1, 18]?
Answer: Its value is 2.

Question: What about the “Number of slugs Healthy” value [1, 18] of the same compound?
Answer: The value was 12.

Question: What about the “Number of slugs Affected” value [1, 19] of the same compound?
Answer: The value was 6.

Question: What about the “Number of slugs Dead” value [1, 19] of the same compound?
Answer: Its value is 6.

Question: And the “Number of slugs Healthy” value [1, 19]?
Answer: Its value is 8.

Question: What about the “Number of slugs Affected” value [1, 20] of the same compound?
Answer: The value was 6.

Question: And the “Number of slugs Dead” value [1, 20]?
Answer: The value was 6.

Question: And the “Number of slugs Healthy” value [1, 20]?
Answer: Its value is 8.

Question: And the “Number of slugs Affected” value [1, 21]?
Answer: Its value is 2.

Question: What about the “Number of slugs Dead” value [1, 21] of the same compound?
Answer: The value was 16.

Question: What about the “Number of slugs Healthy” value [1, 21] of the same compound?
Answer: Its value is 2.

Question: What about the “Number of slugs Affected” value [1, 22] of the same compound?
Answer: Its value is 0.

Question: What about the “Number of slugs Dead” value [1, 22] of the same compound?
Answer: Its value is 18.

Question: What about the “Number of slugs Healthy” value [1, 22] of the same compound?
Answer: The value was 2.

Question: And the “Number of slugs Affected” value [1, 23]?
Answer: Its value is 0.

Question: What about the “Number of slugs Dead” value [1, 23] of the same compound?
Answer: The value was 18.

Question: What about the “Number of slugs Healthy” value [1, 23] of the same compound?
Answer: Its value is 2.

Question: What about the “Number of slugs Affected” value [1, 24] of the same compound?
Answer: The value was 0.

Question: What about the “Number of slugs Dead” value [1, 24] of the same compound?
Answer: Its value is 20.

Question: And the “Number of slugs Healthy” value [1, 24]?
Answer: The value was 0.

Question: What about the “Number of slugs Affected” value [1, 25] of the same compound?
Answer: Its value is 0.

Question: And the “Number of slugs Dead” value [1, 25]?
Answer: The value was 20.

Question: And the “Number of slugs Healthy” value [1, 25]?
Answer: The value was 0.

Question: What about the “Number of slugs Affected” value [1, 26] of the same compound?
Answer: The value was 0.

Question: And the “Number of slugs Dead” value [1, 26]?
Answer: The value was 20.

Question: And the “Number of slugs Healthy” value [1, 26]?
Answer: Its value is 0.

Question: What about the “activity against D. reticulatum slugs (in words)” value ([1]; efficacy increases with concentration and with time) of the same compound?
Answer: The value was “active against D. reticulatum slugs”.

Question: What about the “mean concentration that kills 99% of the population (probit analysis)” value ([2]; Deroceras reticulatum, treatments 1 to 4 (Amistar 250SC)) of the same compound?
Answer: The value was 0.068 mg a.i./slug.

Question: And the “killing of slugs (in words)” value ([2]; treatments 1 to 4)?
Answer: Its value is “highly effective at killing slugs”.

Question: And the “efficacy against slug species (in words)” value ([3]; Arion distinctus)?
Answer: Its value is “effective against all three species”.

Question: And the “concentration to kill approximately 99% of the population (probit analysis)” value ([3]; A. distinctus)?
Answer: Its value is 0.183 mg a.i./slug.

Question: And the “efficacy against slug species (in words)” value ([4]; Arion fasciatus)?
Answer: The value was “effective against all three species”.

Question: What about the “concentration to kill approximately 99% of the population (probit analysis)” value ([4]; A. fasciatus) of the same compound?
Answer: Its value is 0.904 mg a.i./slug.

Question: And the “efficacy against slug species (in words)” value ([5]; Tandonia budapestensis)?
Answer: Its value is “effective against all three species”.

Question: And the “concentration to kill approximately 99% of the population (probit analysis)” value ([5]; T. budapestensis)?
Answer: Its value is 0.163 mg a.i./slug.

Question: And the “efficacy against slug species (in words)” value [6]?
Answer: Its value is “effective against all four slug species tested”.

Question: And the “efficacy against slug species (in words)” value [7]?
Answer: The value was “effective against all four slug species tested”.

Question: And the “efficacy against slug species (in words)” value [8]?
Answer: Its value is “effective against all four slug species tested”.

Question: What about the “efficacy against slug species (in words)” value [9] of the same compound?
Answer: The value was “effective against all four slug species tested”.

Question: What about the Affected % [10, 27] of the same compound?
Answer: The Affected % was 12.5%.

Question: What about the “Dead or Moribund %” value [10, 27] of the same compound?
Answer: The value was 42.5%.

Question: And the Healthy % [10, 27]?
Answer: Its Healthy % is 45%.

Question: What about the slug mortality ([10]; azoxystrobin additionally present with surfactant/formulation (treatment 4)) of the same compound?
Answer: The slug mortality was 100%.

Question: With `CO/N=C(/C1=NOCCO1)c1ccccc1Oc1ncnc(Oc2ccccc2Cl)c1F` [fluoxastrobin] as the compound, how does the “slug mortality (in words)” value [2] read?
Answer: The value was “significant levels of slug mortality”.

Question: How did the “mean concentration that kills 99% of the population (probit analysis)” value ([11]; Deroceras reticulatum, treatments 1 to 4 (Acanto 250SC)) turn out when `CO/C=C(/C(=O)OC)c1ccccc1COc1cccc(C(F)(F)F)n1` [picoxystrobin] was run?
Answer: The value was 0.198 mg a.i./slug.

Question: What about the “killing of slugs (in words)” value ([11]; doses equivalent to 0.05 mg a.i./slug or more) of the same compound?
Answer: Its value is “highly effective at killing slugs”.

Question: With `CON=C(C(=O)OC)c1ccccc1CON=C(C)c1cccc(C(F)(F)F)c1` [trifloxystrobin] as the compound, how does the “slug mortality (in words)” value [2] read?
Answer: Its value is “significant levels of slug mortality”.

— patent US20150296780A1, “MOLLUSCICIDE” (Syngenta Participations AG, priority 2008, published 2015)
